Results on 3 molecules are retold here after patent EP1175907A1, “REMEDIES” (Takara Shuzo Co, Ltd., priority 1999, dated 2000).

Structures are written as SMILES. Where “and” joins values, the source holds several entries; their conditions need not be identical. Equal values may be shown once. *1 amine or outer side, *2 acyl side, *3 side chain or, on linkers, in order; H or OH if unused. Where a SMILES comes first, the peptide text is derived from it. Bridges are numbered along the chain shown (N, C = ends). Roman numbers before positions name the chains, in order. [ ]: non-standard residue; d: D form. Actinocin(9to1) = Cc1c2oc3c(C)ccc(C(=O)[*:1])c3nc-2c(C(=O)[*:2])c(N)c1=O; NMeV = CN[C@H](C(=O)O)C(C)C; Sar = CNCC(=O)O

Test [1] relates to MRC-5 cells. Put plainly: HGF production in MRC-5 cells with cycloheximide (protein synthesis inhibitor). It is filed as cell-based, Human. The settings on record: for Amount of HGF Produced (in Medium): control = 100%. How it is done: (1) Five-hundred microliters of a solution containing MRC-5 cells suspended in a DME medium containing 10% fetal bovine serum so as to have a concentration of 1 × 10^5 cells/ml were added into each well of a 48-well cell culture plate. The cells were cultured at 37°C for 24 hours in the presence of 5% CO2, and then the medium was exchanged for a DME medium containing 1% fetal bovine serum. Thereafter, cycloheximide (protein synthesis inhibitor: manufactured by nacalaitesque) was added thereto so as to have a final concentration of 0, 1, or 10 µg/ml, and a sample to be analyzed was further added thereto. Thereafter, the cells were cultured for 24 hours. This medium was collected, and the amount of HGF in the medium was determined by using the HGF ELISA Kit. The fucoidan derived from Kjellmaniella crassifolia described in item (1) of Reference Example 1 was added so as to have a final concentration of 1, 10 or 100 µg/ml. As a control, distilled water was added in the same volume as that of the sample. Each experiment was carried out twice, and an average value was taken. In Table 50, the amount of HGF produced of the control was regarded as 100%.
(2) Five-hundred microliters of MRC-5 cells (CCL171: manufactured by DAINIPPON PHARMACEUTICAL CO., LTD., code. 02-021) suspended in a DME medium containing 10% fetal bovine serum so as to have a concentration of 1 × 10^5 cells/ml were added into each well of a 48-well cell culture plate. The cells were cultured at 37°C for 24 hours in the presence of 5% CO2, and then the medium was exchanged for a DME medium containing 1% fetal bovine serum. Thereafter, cycloheximide (protein synthesis inhibitor: manufactured by nacalaitesque) was added thereto so as to have a final concentration of 0, 1, or 10 µg/ml, and a sample to be analyzed was further added thereto. The cells were then cultured for 24 hours. This medium was collected, and the amount of HGF in the medium was determined by using Quantikine Human Hepatocyte Growth Factor (HGF) ELISA Kit (manufactured by Funakoshi, Code. RS-0641-00). In addition, the cells were washed with PBS, and thereafter dissolved in 500 µl of a cytolytic buffer (50 mM HEPES, pH 7.4; 10 mM EDTA, 0.1% Triton x 100; 1 mM PMSF; 1 µg/ml pepstatin A and 1 µg/ml leupeptin). Further, in order to completely dissolve the cells, the mixture was subjected to sonication treatment, and then centrifuged, to give a supernatant (cell extract). The amount of HGF in the cell was determined in the same manner as that of the concentration of HGF in the medium. As to the amount of HGF produced, negative control was regarded as 100%. As to the inhibitory ratio, the inhibitory ratio (%) in the cycloheximide-added fraction was calculated on the basis of the amount of HGF produced when 7-12SFd-F was added alone at each concentration. 7-12SFd-F was added so as to have a final concentration of 1, 10 or 100 µg/ml. As the negative control, distilled water was added in the same volume as that of the sample. Each experiment was carried out three times, and an average value was taken. […] It was clarified from these findings that protein synthesis was involved in the induction of HGF production by 7-12SFd-F, not simply freeing of HGF from the cells.

A further test has as its system NHDF cells. Put plainly: HGF in medium of NHDF cells with or without minoxidil. It is filed as cell-based, human. How it is done:
The cells were cultured for 24 hours. […] Also, the same steps were carried out for the group added with only the sample without adding minoxidil. The medium was collected, and the amount of HGF in the medium was determined by using Quantikine Human Hepatocyte Growth Factor (HGF) ELISA Kit. […] As a negative control, distilled water was added in the same volume as that of the sample. Each experiment was carried out three times, and an average value was taken.

For test [2], the system named is MRC-5 cells. Nature of the test: HGF production in MRC-5 cells with actinomycin D (RNA synthesis inhibitor). The class given is cell-based, Human. The settings on record: for Amount of HGF Produced (in Medium): control = 100%. How it is done: (3) Five-hundred microliters of MRC-5 cells (CCL171: manufactured by DAINIPPON PHARMACEUTICAL CO., LTD., code. 02-021) suspended in a DME medium containing 10% fetal bovine serum so as to have a concentration of 1 × 10^5 cells/ml were added into each well of a 48-well cell culture plate. The cells were cultured at 37°C for 24 hours in the presence of 5% CO2, and then the medium was exchanged for a DME medium containing 1% fetal bovine serum. Thereafter, actinomycin D (RNA synthesis inhibitor: manufactured by Sigma) was added thereto so as to have a final concentration of 0, 0.1, or 1 µg/ml, and a sample to be analyzed was further added thereto. The cells were then cultured for 24 hours. This medium was collected, and the amount of HGF in the medium was determined by using Quantikine Human Hepatocyte Growth Factor (HGF) ELISA Kit (manufactured by Funakoshi, Code. RS-0641-00). As to the amount of HGF produced, negative control was regarded as 100%. As to the inhibitory ratio, the inhibitory ratio (%) of the actinomycin D-added fraction was calculated on the basis of the amount of HGF produced when the fucoidan was added alone at each concentration. The fucoidan derived from Kjellmaniella crassifolia described in item (1) of Reference Example 1 was added so as to have a final concentration of 1, 10 or 100 µg/ml. As the negative control, distilled water was added in the same volume as that of the sample. Each experiment was carried out twice, and an average value was taken. […] It was clarified from these findings that RNA synthesis was probably involved in the induction of HGF production by the fucoidan, not simply freeing of HGF from the cells.
(4) Five-hundred microliters of MRC-5 cells (CCL171: manufactured by DAINIPPON PHARMACEUTICAL CO., LTD., code. 02-021) suspended in a DME medium containing 10% fetal bovine serum so as to have a concentration of 1 × 10^5 cells/ml were added into each well of a 48-well cell culture plate. The cells were cultured at 37°C for 24 hours in the presence of 5% CO2, and then the medium was exchanged for a DME medium containing 1% fetal bovine serum. Thereafter, actinomycin D (RNA synthesis inhibitor: manufactured by Sigma) was added thereto so as to have a final concentration of 0, 0.1, or 1 µg/ml, and a sample was further added thereto. The cells were then cultured for 24 hours. This medium was collected, and the amount of HGF in the medium was determined by using Quantikine Human Hepatocyte Growth Factor (HGF) ELISA Kit (manufactured by Funakoshi, Code. RS-0641-00). In addition, the cells were washed with PBS, and thereafter dissolved in 500 µl of a cytolytic buffer (50 mM HEPES, pH 7.4; 10 mM EDTA, 0.1% Triton x 100; 1 mM PMSF; 1 µg/ml pepstatin A and 1 µg/ml, leupeptin). Further, in order to completely dissolve the cells, the mixture was subjected to sonication treatment, and then centrifuged, to give a supernatant (cell extract). The amount of HGF in the cell was determined in the same manner as that of the concentration of HGF in the medium. As to the amount of HGF produced, negative control was regarded as 100%. As to the inhibitory ratio, the inhibitory ratio (%) of the actinomycin D-added fraction was calculated on the basis of the amount of HGF produced when 7-12SFd-F was added alone at each concentration. 7-12SFd-F was added so as to have a final concentration of 1,10 or 100 µg/ml. As the negative control, distilled water was added in the same volume as that of the sample. Each experiment was carried out three times, and an average value was taken. […] It was clarified from these findings that RNA synthesis was probably involved in the induction of HGF production by 7-12SFd-F, not simply freeing of HGF from the cells.

Consider `C[C@@H]1C[C@@H]([C@H](O)CC2CC(=O)NC(=O)C2)C(=O)[C@@H](C)C1` [Cycloheximide, cycloheximide], for which, in the test with MRC-5 cells [1] (Cycloheximide 1 µg/ml alone), the “Amount of HGF Produced (Total in Cells and in Medium)” value stood at 31%; the “Inhibitory Ratio Where Cycloheximide Non-Added Group Was Regarded as 100% (Total in Cells and in Medium)” value came out at 69%; the “Inhibitory Ratio Where Cycloheximide Non-Added Group Was Regarded as 100% (in Medium)” value was 60%; the “Amount of HGF Produced (in Medium)” value was 35% and 40%. Moreover, in the test with MRC-5 cells [1] (Cycloheximide 10 µg/ml alone), the “Amount of HGF Produced (Total in Cells and in Medium)” value is 27%; the “Inhibitory Ratio Where Cycloheximide Non-Added Group Was Regarded as 100% (Total in Cells and in Medium)” value came to 73%; the “Inhibitory Ratio Where Cycloheximide Non-Added Group Was Regarded as 100% (in Medium)” value is recorded as 60%; the “Amount of HGF Produced (in Medium)” value was 27% and 40%.

As for `Nc1cc(N2CCCCC2)nc(N)[n+]1[O-]` [Minoxidil, minoxidil], the “Concentration of HGF in Medium” value in the test on NHDF cells (Minoxidil 10 µg/ml alone) is 126.04 pg/mL; in the test on NHDF cells (Minoxidil 100 µg/ml alone), 148.83 pg/mL and 137.20 pg/mL.

In the case of `Cc1c2oc3c(C)ccc(C(=O)N[C@@H]4C(=O)N[C@H](C(C)C)C(=O)N5CCC[C@H]5C(=O)N(C)CC(=O)N(C)[C@@H](C(C)C)C(=O)O[C@@H]4C)c3nc-2c(C(=O)N[C@@H]2C(=O)N[C@H](C(C)C)C(=O)N3CCC[C@H]3C(=O)N(C)CC(=O)N(C)[C@@H](C(C)C)C(=O)O[C@@H]2C)c(N)c1=O` [Actinomycin D, actinomycin D] (I: T[dV]P[Sar][NMeV] / II: T[dV]P[Sar][NMeV]; ester I:1-I:C, II:1-II:C; linker I:N-II:N via Actinocin(9to1)), in the test with MRC-5 cells [2] (Actinomycin D 0.1 µg/ml alone), the “Amount of HGF Produced (Total in Cells and in Medium)” value is reported as 61%; the “Inhibitory Ratio Where Actinomycin D Non-Added Group Was Regarded as 100% (Total in Cells and in Medium)” value was determined as 39%; the “Inhibitory Ratio Where Actinomycin D Non-Added Group Was Regarded as 100% (in Medium)” value was 21% and 24%; the “Amount of HGF Produced (in Medium)” value was 79% and 76%. In addition, in the test with MRC-5 cells [2] (Actinomycin D 1 µg/ml alone), the “Amount of HGF Produced (Total in Cells and in Medium)” value is reported as 59%; the “Inhibitory Ratio Where Actinomycin D Non-Added Group Was Regarded as 100% (Total in Cells and in Medium)” value was 41%; the “Inhibitory Ratio Where Actinomycin D Non-Added Group Was Regarded as 100% (in Medium)” value was 17% and 20%; the “Amount of HGF Produced (in Medium)” value was 83% and 80%.
